Experimental data reported in ChEMBL document CHEMBL2401644, “Synthesis and biological evaluation of new chlorin derivatives as potential photosensitizers for photodynamic therapy” (Bioorg Med Chem, 2013).
The source made the active and inactive calls. No cut-off for these calls is given here.

Columns and labels:
Serum [1] = test: Biodistribution in serum of BALB/c mouse allografted with mouse C26 cells at 10 mg/kg, iv after 1 to 24 hrs; format: ADME, organism-based; set-up: dose 10 mg/kg, route intravenous; details: in vivo
[2] = Biodistribution in serum of BALB/c mouse allografted with mouse C26 cells at 10 mg/kg, iv after 3 hrs; format: ADME, organism-based; set-up: dose 10 mg/kg, route intravenous; details: read-out: Drug uptake
Mus musculus [3] = test: Biodistribution in tumor of BALB/c mouse allografted with mouse C26 cells at 10 mg/kg, iv after 1 to 24 hrs; format: ADME, organism-based, Neoplasm; set-up: dose 10 mg/kg, route intravenous; details: in vivo
[4] = Biodistribution in serum of BALB/c mouse allografted with mouse C26 cells at 10 mg/kg, iv after 1 hr; format: ADME, organism-based; set-up: dose 10 mg/kg, route intravenous; details: read-out: Drug uptake
Liver [5] = test: Biodistribution in liver of BALB/c mouse allografted with mouse C26 cells at 10 mg/kg, iv after 1 to 24 hrs; format: ADME, organism-based; set-up: dose 10 mg/kg, route intravenous; details: in vivo
[6] = Solubility of the compound in water; format: physicochemical
Lung [7] = test: Biodistribution in lung of BALB/c mouse allografted with mouse C26 cells at 10 mg/kg, iv after 3 hrs; format: ADME, organism-based; set-up: dose 10 mg/kg, route intravenous; details: in vivo
Muscle tissue [8] = test: Biodistribution in muscle of BALB/c mouse allografted with mouse C26 cells at 10 mg/kg, iv after 24 hrs; format: ADME, organism-based; set-up: dose 10 mg/kg, route intravenous; details: in vivo
C26 [9] = test: Antitumor activity against mouse C26 cells allografted in BALB/c mouse assessed as reduction in nuclei size of tumor cells at 10 mg/kg, iv administered for 3 hrs followed by light irradiation measured after 3 days by hematoxylin and eosin staining relative to control; format: functional, organism-based; set-up: dose 10 mg/kg
Spleen [10] = test: Biodistribution in spleen of BALB/c mouse allografted with mouse C26 cells at 10 mg/kg, iv after 24 hrs; format: ADME, organism-based; set-up: dose 10 mg/kg, route intravenous; details: in vivo
Kidney [11] = test: Biodistribution in kidney of BALB/c mouse allografted with mouse C26 cells at 10 mg/kg, iv after 3 hrs; format: ADME, organism-based; set-up: dose 10 mg/kg, route intravenous; details: in vivo
Zone of skin [12] = test: Biodistribution in skin of BALB/c mouse allografted with mouse C26 cells at 10 mg/kg, iv after 3 hrs; format: ADME, organism-based; set-up: dose 10 mg/kg, route intravenous; details: in vivo
[13] = Biodistribution in serum of BALB/c mouse allografted with mouse C26 cells at 10 mg/kg, iv after 6 hrs; format: ADME, organism-based; set-up: dose 10 mg/kg, route intravenous; details: read-out: Drug uptake
Muscle tissue [14] = test: Biodistribution in muscle of BALB/c mouse allografted with mouse C26 cells at 10 mg/kg, iv after 3 hrs; format: ADME, organism-based; set-up: dose 10 mg/kg, route intravenous; details: in vivo
Liver [15] = test: Biodistribution in liver of BALB/c mouse allografted with mouse C26 cells at 10 mg/kg, iv after 24 hrs; format: ADME, organism-based; set-up: dose 10 mg/kg, route intravenous; details: in vivo
Serum [16] = test: Biodistribution in serum of BALB/c mouse allografted with mouse C26 cells at 10 mg/kg, iv after 24 hrs; format: ADME, organism-based; set-up: dose 10 mg/kg, route intravenous; details: in vivo
Zone of skin [17] = test: Biodistribution in skin of BALB/c mouse allografted with mouse C26 cells at 10 mg/kg, iv after 24 hrs; format: ADME, organism-based; set-up: dose 10 mg/kg, route intravenous; details: in vivo
Brain [18] = test: Biodistribution in brain of BALB/c mouse allografted with mouse C26 cells at 10 mg/kg, iv after 3 hrs; format: ADME, organism-based; set-up: dose 10 mg/kg, route intravenous; details: in vivo
Kidney [19] = test: Biodistribution in kidney of BALB/c mouse allografted with mouse C26 cells at 10 mg/kg, iv after 24 hrs; format: ADME, organism-based; set-up: dose 10 mg/kg, route intravenous; details: in vivo
Mus musculus [20] = test: Toxicity against BALB/c mouse allografted with mouse C26 cells assessed as cellular damage in liver at 10 mg/kg, iv administered for 3 hrs followed by irradiation measured after 3 days by hematoxylin and eosin staining; format: organism-based; set-up: dose 10 mg/kg, route intravenous; details: in vivo, 72 h
Spleen [21] = test: Biodistribution in spleen of BALB/c mouse allografted with mouse C26 cells at 10 mg/kg, iv after 3 hrs; format: ADME, organism-based; set-up: dose 10 mg/kg, route intravenous; details: in vivo
C26 [22] = test: Antitumor activity against mouse C26 cells allografted in BALB/c mouse assessed as poor nuclei staining of tumor cells at 10 mg/kg, iv administered for 3 hrs followed by light irradiation measured after 3 days by hematoxylin and eosin staining relative to control; format: functional, organism-based; set-up: dose 10 mg/kg
C26 [23] = test: Antitumor activity against mouse C26 cells allografted in BALB/c mouse at 10 mg/kg, iv followed by light irradiation measured after 3 to 7 days; format: functional, organism-based; set-up: dose 10 mg/kg
Lung [24] = test: Biodistribution in lung of BALB/c mouse allografted with mouse C26 cells at 10 mg/kg, iv after 24 hrs; format: ADME, organism-based; set-up: dose 10 mg/kg, route intravenous; details: in vivo
C26 [25] = test: Antitumor activity against mouse C26 cells allografted in BALB/c mouse assessed as sparsely distributed cell nuclei of tumor cells at 10 mg/kg, iv administered for 3 hrs followed by light irradiation measured after 3 days by hematoxylin and eosin staining relative to control; format: functional, organism-based; set-up: dose 10 mg/kg
Mus musculus [26] = test: Toxicity against BALB/c mouse allografted with mouse C26 cells assessed as cellular damage in kidney at 10 mg/kg, iv administered for 3 hrs followed by irradiation measured after 3 days by hematoxylin and eosin staining; format: organism-based; set-up: dose 10 mg/kg, route intravenous; details: in vivo, 72 h
Liver [27] = test: Biodistribution in liver of BALB/c mouse allografted with mouse C26 cells at 10 mg/kg, iv after 3 hrs; format: ADME, organism-based; set-up: dose 10 mg/kg, route intravenous; details: in vivo
Brain [28] = test: Biodistribution in brain of BALB/c mouse allografted with mouse C26 cells at 10 mg/kg, iv after 24 hrs; format: ADME, organism-based; set-up: dose 10 mg/kg, route intravenous; details: in vivo
C26 [29] = test: Antitumor activity against mouse C26 cells allografted in BALB/c mouse assessed as reduction in nuclei number of tumor cells at 10 mg/kg, iv administered for 3 hrs followed by light irradiation measured after 3 days by hematoxylin and eosin staining relative to control; format: functional, organism-based; set-up: dose 10 mg/kg
[30] = Biodistribution in tumor of BALB/c mouse allografted with mouse C26 cells at 10 mg/kg, iv after 3 hrs; format: ADME, organism-based, Neoplasm; set-up: dose 10 mg/kg, route intravenous; details: read-out: Drug uptake

## C=Cc1c(C)c2cc3nc(cc4[nH]c(cc5nc(cc1[nH]2)C(C)(O)/C5=C\C=N/OCC)c(C)c4CCC(=O)[O-])C(CCC(=O)[O-])=C3C.[Na+].[Na+] (stereo unspecified)
Serum [1]
  Drug uptake: Active
[2]
  concentration at 3 h: 5900 ng/g
Mus musculus [3]
  Drug uptake: Active
[4]
  concentration at 1 h: 24200 ng/g
Liver [5]
  Drug uptake: Active
[6]
  solubility: 10000 µg/mL

## C=Cc1c(C)c2cc3nc(cc4[nH]c(cc5nc(cc1[nH]2)C(C)(O)/C5=C\C=N/OCC)c(C)c4CCC(=O)N(CC(=O)[O-])CC(=O)[O-])C(CCC(=O)N(CC(=O)[O-])CC(=O)[O-])=C3C.[Na+].[Na+].[Na+].[Na+] (stereo unspecified)
Lung [7]
  Drug uptake: Active
Muscle tissue [8]
  Drug uptake: Not Active
C26 [9]
  Activity: Active
[2]
  concentration at 3 h: 8400 ng/g
Spleen [10]
  Drug uptake: Not Active
Kidney [11]
  Drug uptake: Active
Zone of skin [12]
  Drug uptake: Active
Mus musculus [3]
  Drug uptake: Active
[13]
  concentration at 6 h: 3400 ng/g
[4]
  concentration at 1 h: 17200 ng/g
Muscle tissue [14]
  Drug uptake: Active
Liver [15]
  Drug uptake: Not Active
Serum [16]
  Drug uptake: Not Active
Zone of skin [17]
  Drug uptake: Not Active
Brain [18]
  Drug uptake: Active
Kidney [19]
  Drug uptake: Not Active
Mus musculus [20]
  Activity: Non-toxic
Spleen [21]
  Drug uptake: Active
C26 [22]
  Activity: Active
C26 [23]
  TGI: Active
[6]
  solubility: 100000 µg/mL
Lung [24]
  Drug uptake: Not Active
C26 [25]
  Activity: Active
Mus musculus [26]
  Activity: Non-toxic
Liver [27]
  Drug uptake: Active
Brain [28]
  Drug uptake: Not Active
C26 [29]
  Activity: Active
[30]
  concentration at 3 h: 690 ng/g

## C=Cc1c(C)c2cc3nc(cc4[nH]c(cc5nc(cc1[nH]2)C(C)(O)/C5=C\CO)c(C)c4CCC(=O)[O-])C(CCC(=O)[O-])=C3C.[Na+].[Na+] (stereo unspecified)
Mus musculus [3]
  Drug uptake: Not Active
[6]
  solubility: 10000 µg/mL
